# Experimental data as given in US9597407B2, “Targeted antimicrobial moieties” (C3 Jian, Inc., priority 2009, dated 2017).
# System: microorganisms
# Assay: Morphology, biofilm and growth disruption by peptides (Table 5)
# Assay type: cell-based
# Set-up: key: A: Peptide aggregates; B: Less hyphal formation; Clumps; Diffuse clumps and small polyps; F: Diffuse growth; H: Thin; I: Growth inhibition; Microcolony formation; Rippled; Small polyps; Thick; W: Halo formation on top, microlonies on bottom
# Description: In certain embodiments peptides that induce alterations in phenotype or other biological activities can also be used as antimicrobial effector moieties.
substance,measurement,setting,value
PF-203 (SWKCHHLAI; Peptide with targeting and/or antimicrobial activity),"Organism, effect",C. jeikeium,C. jeikeium (R)
same,"Organism, effect",S. epidermidis,S. epidermidis (A)
PF-220 (VDPADDGTRHIRPEDGDPIEIDE; Peptide with targeting and/or antimicrobial activity),"Organism, effect",S. pneumoniae,S. pneumoniae (H)
PF-250 (SEDIFGRLANEKANGLEELRKIRLKQ; Peptide with targeting and/or antimicrobial activity),"Organism, effect",M. luteus,M. luteus (T)
PF-264 (MQSLSNRQSLIASYILMGIFLSFGYPPASLSKFFCRLSHL; Peptide with targeting and/or antimicrobial activity),"Organism, effect",M. luteus,M. luteus (H)
PF-274 (SIQEAEKIIKNDPFYIHDVADYDFMWFEPSKSLEEIKEFV; Peptide with targeting and/or antimicrobial activity),"Organism, effect",M. luteus,M. luteus (M)
PF-290 (MVHDMTNGTLIIVKH; Peptide with targeting and/or antimicrobial activity),"Organism, effect",S. epidermidis,S. epidermidis (C)
PF-293 (YDPLK; Peptide with targeting and/or antimicrobial activity),"Organism, effect",S. epidermidis,S. epidermidis (C)
PF-296 (GAFGMPSIKTNTICGEKGKFISACDAWLSNLK; Peptide with targeting and/or antimicrobial activity),"Organism, effect",B. subtilis,B. subtilis (C)
same,"Organism, effect",S. epidermidis,S. epidermidis (C)
PF-303 (EYPWSWISEPWPWDKSFYK; Peptide with targeting and/or antimicrobial activity),"Organism, effect",B. subtilis,B. subtilis (C)
PF-310 (GVALIGTILVPLLSGLFG; Peptide with targeting and/or antimicrobial activity),"Organism, effect",S. epidermidis,S. epidermidis (C)
PF-318 (MGRHLWNPSYFVATVSENTEEQIRKYINNQKKQVK; Peptide with targeting and/or antimicrobial activity),"Organism, effect",B. subtilis,B. subtilis (C)
same,"Organism, effect",S. epidermidis,S. epidermidis (C)
PF-335 (AAYPIEDWSDWYEDFFIMLSNI; Peptide with targeting and/or antimicrobial activity),"Organism, effect",B. subtilis,B. subtilis (C)
same,"Organism, effect",S. epidermidis,S. epidermidis (C)
PF-339 (KKIDILINKYMYLSK; Peptide with targeting and/or antimicrobial activity),"Organism, effect",B. subtilis,B. subtilis (C)
same,"Organism, effect",S. epidermidis,S. epidermidis (C)
PF-342 (AFSGVYKTLIVYTRRK; Peptide with targeting and/or antimicrobial activity),"Organism, effect",B. subtilis,B. subtilis (C)
same,"Organism, effect",S. epidermidis,S. epidermidis (C)
PF-347 (GIFTGVTVVVSLKHC; Peptide with targeting and/or antimicrobial activity),"Organism, effect",E. coli,E. coli (C)
same,"Organism, effect",E. faecalis,E. faecalis (C)
same,"Organism, effect",MRSA,MRSA (C)
same,"Organism, effect",S. epidermidis,S. epidermidis (C)
PF-398 (ILVVLAGILLVVLSYVGISKFKMNC; Peptide with targeting and/or antimicrobial activity),"Organism, effect",E. coli,E. coli (C)
same,"Organism, effect",E. faecalis,E. faecalis (C)
same,"Organism, effect",MRSA,MRSA (C)
same,"Organism, effect",S. epidermidis,S. epidermidis (C)
PF-399 (FPIISALLGAIICIAIYSFIVNRKA; Peptide with targeting and/or antimicrobial activity),"Organism, effect",E. coli,E. coli (C)
same,"Organism, effect",E. faecalis,E. faecalis (C)
same,"Organism, effect",MRSA,MRSA (C)
same,"Organism, effect",S. epidermidis,S. epidermidis (C)
PF-407 (KPKNKKEKTVISYEKLLSMY; Peptide with targeting and/or antimicrobial activity),"Organism, effect",E. faecalis,E. faecalis (R)
same,"Organism, effect",MRSA,MRSA (C)
same,"Organism, effect",S. epidermidis,S. epidermidis (M)
same,"Organism, effect",S. pneumoniae,S. pneumoniae (R)
PF-410 (FALELIALCRNLFIVYFP; Peptide with targeting and/or antimicrobial activity),"Organism, effect",E. coli,E. coli (S)
same,"Organism, effect",E. faecalis,E. faecalis (C)
same,"Organism, effect",MRSA,MRSA (M)
same,"Organism, effect",S. epidermidis,S. epidermidis (C)
PF-411 (WVAVAILLNIALQTQLT; Peptide with targeting and/or antimicrobial activity),"Organism, effect",C. jejuni,C. jejuni (D)
same,"Organism, effect",E. coli,E. coli (C)
same,"Organism, effect",E. faecalis,E. faecalis (D)
same,"Organism, effect",MRSA,MRSA (D)
same,"Organism, effect",P. aeruginosa,P. aeruginosa (A)
same,"Organism, effect",S. epidermidis,S. epidermidis (C)
same,"Organism, effect",S. pneumoniae,S. pneumoniae (D)
PF-415 (MIDVTIGQKSKTGAFNASYSICFSGENFSF; Peptide with targeting and/or antimicrobial activity),"Organism, effect",S. pneumoniae,S. pneumoniae (D)
PF-418 (FFLVHFYIRKRKGKVSIFLNYF; Peptide with targeting and/or antimicrobial activity),"Organism, effect",C. jejuni,C. jejuni (D)
same,"Organism, effect",E. coli,E. coli (C)
same,"Organism, effect",E. faecalis,E. faecalis (D)
same,"Organism, effect",MRSA,MRSA (D)
same,"Organism, effect",S. epidermidis,S. epidermidis (M)
same,"Organism, effect",S. pneumoniae,S. pneumoniae (D)
PF-419 (VVTGKVGSLPQIK; Peptide with targeting and/or antimicrobial activity),"Organism, effect",S. pneumoniae,S. pneumoniae (H)
PF-431 (VAYAAICWW; Peptide with targeting and/or antimicrobial activity),"Organism, effect (morphology, biofilm and growth disruption)",C. jejuni,C. jejuni (R)
same,"Organism, effect (morphology, biofilm and growth disruption)",E. faecalis,E. faecalis (R)
same,"Organism, effect (morphology, biofilm and growth disruption)",MRSA,MRSA (C)
same,"Organism, effect (morphology, biofilm and growth disruption)",S. epidermidis,S. epidermidis (M)
same,"Organism, effect (morphology, biofilm and growth disruption)",S. pneumoniae,S. pneumoniae (R)
PF-432 (FNGDSEFFLCIAF; Peptide with targeting and/or antimicrobial activity),"Organism, effect (morphology, biofilm and growth disruption)",C. jejuni,C. jejuni (D)
same,"Organism, effect (morphology, biofilm and growth disruption)",E. coli,E. coli (R)
same,"Organism, effect (morphology, biofilm and growth disruption)",E. faecalis,E. faecalis (D)
same,"Organism, effect (morphology, biofilm and growth disruption)",MRSA,MRSA (M)
same,"Organism, effect (morphology, biofilm and growth disruption)",P. aeruginosa,P. aeruginosa (A)
same,"Organism, effect (morphology, biofilm and growth disruption)",S. epidermidis,S. epidermidis (M)
same,"Organism, effect (morphology, biofilm and growth disruption)",S. pneumoniae,S. pneumoniae (D)
PF-449 (MPTTKSKQKGWTNTKKASNTQ; Peptide with targeting and/or antimicrobial activity),"Organism, effect (morphology, biofilm and growth disruption)",S. pneumoniae,S. pneumoniae (H)
